The values below come from article PMC6784069 (Toxins, 2019).

Like-named read-outs stand apart in the source and are kept apart here. Residues, ends and D or L forms follow the SMILES beside them.

The target of series [1] is hCaV1.2 (Homo sapiens, UniProt Q13936). Nature of the series: cell-based. The settings on record: for IC90: read-out: IC90–95 (compound concentration necessary to inhibit 90–95% of current).
Series [2] has as its system hNaV1.2, 1.5 and 1.7–1.8, hCaV1.2 and hKV11.1 currents.
The target in series [3] is hNaV1.8 (Homo sapiens, UniProt Q9Y5Y9). Nature of the series: cell-based. In kind it is cell-based. The settings on record: SD.
Series [4] concerns the target T1, hNaV1.7 (Homo sapiens, UniProt Q15858). Nature of the series: cell-based. The format is cell-based.
The target in series [5] is hNaV1.5 (Homo sapiens, UniProt Q14524). Briefly: cell-based. The conditions noted are these: IC50 on hNaV1.5 current; SD.
In series [6] the target is hNaV1.2 (Homo sapiens, UniProt Q99250). Briefly: cell-based. The conditions noted are these: SD.
The target in series [7] is hKV11.1 (Homo sapiens, UniProt Q12809).
Series [8] has as its system OD1-induced painful behavior of mice. The settings on record: mouse, in vivo; cited from earlier work.
Series [9] concerns the target T1, hNaV1.7. The conditions noted are these: cited from earlier work.

Sequence of hCaV1.2 (Q08289 whole entry): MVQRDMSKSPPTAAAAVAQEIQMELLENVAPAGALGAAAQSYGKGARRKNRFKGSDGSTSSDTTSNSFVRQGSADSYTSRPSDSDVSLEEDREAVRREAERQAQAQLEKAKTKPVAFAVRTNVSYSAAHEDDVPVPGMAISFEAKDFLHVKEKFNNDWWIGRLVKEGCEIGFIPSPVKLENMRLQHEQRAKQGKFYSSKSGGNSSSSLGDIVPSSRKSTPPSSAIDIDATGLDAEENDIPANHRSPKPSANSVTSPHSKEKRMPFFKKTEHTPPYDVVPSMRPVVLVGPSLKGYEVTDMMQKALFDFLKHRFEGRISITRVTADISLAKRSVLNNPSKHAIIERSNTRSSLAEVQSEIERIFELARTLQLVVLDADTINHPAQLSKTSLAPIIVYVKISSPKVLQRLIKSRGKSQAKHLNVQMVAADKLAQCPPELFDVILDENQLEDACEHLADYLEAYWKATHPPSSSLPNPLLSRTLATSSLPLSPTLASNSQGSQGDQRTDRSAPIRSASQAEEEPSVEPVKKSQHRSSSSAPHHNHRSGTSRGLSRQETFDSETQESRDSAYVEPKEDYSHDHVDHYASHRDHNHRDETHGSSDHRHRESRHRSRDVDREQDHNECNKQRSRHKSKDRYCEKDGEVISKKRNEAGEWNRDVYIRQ
Sequence of hCaV1.2 (Q13936 whole entry): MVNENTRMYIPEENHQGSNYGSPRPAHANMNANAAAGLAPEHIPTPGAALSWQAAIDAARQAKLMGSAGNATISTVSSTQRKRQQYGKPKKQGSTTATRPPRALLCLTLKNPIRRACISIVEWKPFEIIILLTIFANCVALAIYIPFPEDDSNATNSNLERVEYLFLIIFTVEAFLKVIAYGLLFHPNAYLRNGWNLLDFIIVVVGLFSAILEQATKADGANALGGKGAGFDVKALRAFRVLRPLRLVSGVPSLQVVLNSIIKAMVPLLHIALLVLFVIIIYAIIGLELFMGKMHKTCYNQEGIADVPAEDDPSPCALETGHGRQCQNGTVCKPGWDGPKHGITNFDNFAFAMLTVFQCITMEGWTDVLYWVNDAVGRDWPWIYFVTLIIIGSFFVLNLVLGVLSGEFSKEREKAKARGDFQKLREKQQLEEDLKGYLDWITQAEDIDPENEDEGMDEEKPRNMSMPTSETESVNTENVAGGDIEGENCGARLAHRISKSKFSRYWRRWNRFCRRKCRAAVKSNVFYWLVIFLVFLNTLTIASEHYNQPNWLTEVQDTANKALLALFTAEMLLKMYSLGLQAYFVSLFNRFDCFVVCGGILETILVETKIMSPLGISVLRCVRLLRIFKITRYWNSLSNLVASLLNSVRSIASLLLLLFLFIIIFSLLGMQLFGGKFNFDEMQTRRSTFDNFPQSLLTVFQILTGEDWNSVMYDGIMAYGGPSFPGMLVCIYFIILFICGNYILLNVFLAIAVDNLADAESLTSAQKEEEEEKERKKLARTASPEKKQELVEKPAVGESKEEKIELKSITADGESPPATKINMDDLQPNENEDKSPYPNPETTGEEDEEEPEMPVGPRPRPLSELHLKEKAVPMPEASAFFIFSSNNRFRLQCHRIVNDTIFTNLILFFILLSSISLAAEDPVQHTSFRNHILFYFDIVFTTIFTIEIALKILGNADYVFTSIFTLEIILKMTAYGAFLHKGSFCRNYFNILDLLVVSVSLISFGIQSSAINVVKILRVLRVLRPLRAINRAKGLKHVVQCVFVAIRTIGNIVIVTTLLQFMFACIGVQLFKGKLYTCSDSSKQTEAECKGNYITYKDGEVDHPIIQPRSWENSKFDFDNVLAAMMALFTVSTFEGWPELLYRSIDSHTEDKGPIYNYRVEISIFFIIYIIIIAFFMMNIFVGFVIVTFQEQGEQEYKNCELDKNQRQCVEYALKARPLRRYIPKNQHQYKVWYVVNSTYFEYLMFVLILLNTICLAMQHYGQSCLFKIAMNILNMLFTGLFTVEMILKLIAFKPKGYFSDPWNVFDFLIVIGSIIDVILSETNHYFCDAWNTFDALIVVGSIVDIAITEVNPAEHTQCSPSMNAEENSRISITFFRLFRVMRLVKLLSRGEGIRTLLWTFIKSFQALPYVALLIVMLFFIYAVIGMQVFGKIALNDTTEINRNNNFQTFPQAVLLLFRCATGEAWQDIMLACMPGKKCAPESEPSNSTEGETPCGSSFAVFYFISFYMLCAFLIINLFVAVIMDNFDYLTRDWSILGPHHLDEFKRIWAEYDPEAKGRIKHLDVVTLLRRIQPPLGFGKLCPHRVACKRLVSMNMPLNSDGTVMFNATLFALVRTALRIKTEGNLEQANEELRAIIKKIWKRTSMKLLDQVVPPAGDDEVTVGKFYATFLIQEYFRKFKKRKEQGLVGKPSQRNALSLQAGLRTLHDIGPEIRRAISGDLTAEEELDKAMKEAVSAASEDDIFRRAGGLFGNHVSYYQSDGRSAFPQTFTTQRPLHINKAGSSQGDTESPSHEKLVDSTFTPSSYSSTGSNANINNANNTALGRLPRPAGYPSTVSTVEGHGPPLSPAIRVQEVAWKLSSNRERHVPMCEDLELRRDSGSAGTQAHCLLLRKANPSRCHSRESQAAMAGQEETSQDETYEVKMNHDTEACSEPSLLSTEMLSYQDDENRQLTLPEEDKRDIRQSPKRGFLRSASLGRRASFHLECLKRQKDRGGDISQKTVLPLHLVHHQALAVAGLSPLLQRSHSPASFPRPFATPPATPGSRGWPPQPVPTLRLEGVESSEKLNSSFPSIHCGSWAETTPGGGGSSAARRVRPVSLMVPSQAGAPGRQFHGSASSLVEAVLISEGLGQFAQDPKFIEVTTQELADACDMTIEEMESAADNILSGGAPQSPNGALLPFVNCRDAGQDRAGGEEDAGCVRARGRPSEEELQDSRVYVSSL
Sequence of hCaV1.2 (P54289 25-956, further chain): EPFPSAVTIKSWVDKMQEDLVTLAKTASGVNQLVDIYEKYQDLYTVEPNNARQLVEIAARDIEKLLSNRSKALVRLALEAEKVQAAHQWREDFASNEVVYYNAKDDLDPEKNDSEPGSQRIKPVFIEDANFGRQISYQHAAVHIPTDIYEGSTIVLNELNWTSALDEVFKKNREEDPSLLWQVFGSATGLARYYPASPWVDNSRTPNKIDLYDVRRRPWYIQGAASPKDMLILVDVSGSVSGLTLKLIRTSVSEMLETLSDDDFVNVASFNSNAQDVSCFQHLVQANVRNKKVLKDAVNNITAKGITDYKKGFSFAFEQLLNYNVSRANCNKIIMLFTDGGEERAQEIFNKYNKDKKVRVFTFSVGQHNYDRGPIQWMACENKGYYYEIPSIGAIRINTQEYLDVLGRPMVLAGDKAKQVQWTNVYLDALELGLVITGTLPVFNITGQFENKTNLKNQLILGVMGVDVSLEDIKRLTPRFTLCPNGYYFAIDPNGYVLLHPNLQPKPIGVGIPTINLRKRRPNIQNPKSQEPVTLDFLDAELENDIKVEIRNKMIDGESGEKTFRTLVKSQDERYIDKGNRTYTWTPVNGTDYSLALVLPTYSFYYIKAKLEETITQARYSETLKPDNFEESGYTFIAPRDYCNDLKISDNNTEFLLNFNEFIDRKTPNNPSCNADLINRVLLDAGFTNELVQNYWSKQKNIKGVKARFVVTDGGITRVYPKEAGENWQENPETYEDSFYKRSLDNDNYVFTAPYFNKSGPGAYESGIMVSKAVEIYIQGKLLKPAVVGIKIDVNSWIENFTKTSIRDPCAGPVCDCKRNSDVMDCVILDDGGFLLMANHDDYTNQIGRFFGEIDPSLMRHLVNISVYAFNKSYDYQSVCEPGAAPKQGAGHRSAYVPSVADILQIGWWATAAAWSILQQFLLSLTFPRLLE
Sequence of hCaV1.2 (P54289 957-1103, further chain): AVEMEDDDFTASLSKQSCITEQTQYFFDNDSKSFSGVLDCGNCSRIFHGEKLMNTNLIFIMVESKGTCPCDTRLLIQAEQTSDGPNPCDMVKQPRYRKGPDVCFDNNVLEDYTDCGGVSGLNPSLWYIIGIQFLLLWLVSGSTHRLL
Sequence of hKV11.1 (Q12809 whole entry): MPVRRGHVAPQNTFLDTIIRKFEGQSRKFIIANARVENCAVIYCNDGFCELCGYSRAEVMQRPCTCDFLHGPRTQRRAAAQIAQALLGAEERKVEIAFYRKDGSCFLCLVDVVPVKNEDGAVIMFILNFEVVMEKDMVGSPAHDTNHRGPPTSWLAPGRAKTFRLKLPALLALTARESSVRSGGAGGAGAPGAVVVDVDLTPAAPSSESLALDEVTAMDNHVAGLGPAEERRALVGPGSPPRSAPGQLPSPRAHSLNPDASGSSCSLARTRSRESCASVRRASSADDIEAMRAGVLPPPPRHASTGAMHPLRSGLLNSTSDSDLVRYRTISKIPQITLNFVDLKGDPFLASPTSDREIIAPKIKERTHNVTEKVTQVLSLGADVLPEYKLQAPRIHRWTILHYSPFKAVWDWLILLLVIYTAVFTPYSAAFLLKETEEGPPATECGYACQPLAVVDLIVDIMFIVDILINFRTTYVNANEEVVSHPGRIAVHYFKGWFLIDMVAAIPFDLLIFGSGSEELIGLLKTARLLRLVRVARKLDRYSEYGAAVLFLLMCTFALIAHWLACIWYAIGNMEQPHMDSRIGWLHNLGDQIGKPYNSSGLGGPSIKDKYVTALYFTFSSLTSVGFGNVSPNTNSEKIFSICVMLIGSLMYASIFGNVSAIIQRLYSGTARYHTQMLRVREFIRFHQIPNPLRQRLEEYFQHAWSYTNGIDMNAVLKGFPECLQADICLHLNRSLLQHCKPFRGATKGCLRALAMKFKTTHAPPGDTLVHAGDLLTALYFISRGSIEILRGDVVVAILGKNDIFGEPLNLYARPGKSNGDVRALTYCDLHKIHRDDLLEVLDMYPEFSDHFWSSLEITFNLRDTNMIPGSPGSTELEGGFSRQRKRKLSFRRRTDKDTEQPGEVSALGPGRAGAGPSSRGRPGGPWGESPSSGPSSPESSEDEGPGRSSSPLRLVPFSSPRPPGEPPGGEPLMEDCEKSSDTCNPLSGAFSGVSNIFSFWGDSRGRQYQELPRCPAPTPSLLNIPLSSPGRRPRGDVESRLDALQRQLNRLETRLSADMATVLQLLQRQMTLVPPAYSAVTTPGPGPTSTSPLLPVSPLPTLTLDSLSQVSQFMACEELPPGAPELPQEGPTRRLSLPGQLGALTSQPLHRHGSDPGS

`[Cl][Cd][Cl]` [Cadmium (chloride), reference compound]: the IC90 in series [1] was found to be 200000 nM.

As a reminder, the IC50 is the concentration that gives 50% inhibition. In the case of `CC(C)C[C@@H]1NC(=O)[C@@H](NC(=O)[C@H](C)N)CSSC[C@@H]2NC(=O)[C@@H]3CSSC[C@@H](C(=O)N[C@@H](CCCNC(=N)N)C(=O)N[C@@H](Cc4ccc(O)cc4)C(=O)N[C@@H](CCCCN)C(=O)N[C@@H](CC(C)C)C(=O)N[C@@H](Cc4ccccc4)C(=O)O)NC(=O)[C@H](Cc4c[nH]c5ccccc45)NC(=O)[C@@H]4CCCN4C(=O)[C@H](Cc4ccc(O)cc4)NC(=O)[C@H](CCCCN)NC(=O)[C@H](Cc4c[nH]c5ccccc45)NC(=O)[C@H](CCC(=O)O)NC(=O)[C@H](CSSC[C@H](NC(=O)[C@H](CO)NC(=O)[C@H](C)NC(=O)[C@H](Cc4c[nH]c5ccccc45)NC(=O)[C@H](CCC(N)=O)NC(=O)CNC1=O)C(=O)N[C@@H](CC(=O)O)C(=O)N1CCC[C@H]1C(=O)N[C@@H](CCCCN)C(=O)N[C@@H](C)C(=O)N[C@@H](CO)C(=O)N[C@@H](CCCCN)C(=O)N3)NC(=O)[C@H](C)NC(=O)[C@H](Cc1ccc(O)cc1)NC(=O)[C@H](CC(N)=O)NC(=O)[C@@H]1CCCN1C2=O` [D7A] (HELM PEPTIDE1{A.C.L.G.Q.W.A.S.C.D.P.K.A.S.K.C.C.P.N.Y.A.C.E.W.K.Y.P.W.C.R.Y.K.L.F}$PEPTIDE1,PEPTIDE1,2:R3-17:R3|PEPTIDE1,PEPTIDE1,9:R3-22:R3|PEPTIDE1,PEPTIDE1,16:R3-29:R3$$$V2.0), the “gain of affinity versus PhlTx1” value in [2] was 2.5-7.4 fold. For the same molecule, in series [2] (SD), the “Hill number nH, all concentration–response curves” value is 1.06 ± 0.13. In addition, the IC50 came to 4000 ± 500 nM in series [3]; 73 ± 23.7 nM in series [4] (IC50 on hNaV1.7 current, SD); 47 nM in [4] (hNaV1.7 IC50, SD); 93.3 ± 32.9 nM in [5]; 47.3 ± 5.2 nM in series [6]; 800 ± 253 nM in series [1] (SD). The “activity on the KV11.1 subtype” value in series [7] is “inactive”.

Consider `CC(C)C[C@@H]1NC(=O)[C@@H](NC(=O)[C@H](C)N)CSSC[C@@H]2NC(=O)[C@@H]3CSSC[C@@H](C(=O)N[C@@H](CCCNC(=N)N)C(=O)N[C@@H](Cc4ccc(O)cc4)C(=O)N[C@@H](CCCCN)C(=O)N[C@@H](CC(C)C)C(=O)N[C@@H](Cc4ccccc4)C(=O)O)NC(=O)[C@H](Cc4c[nH]c5ccccc45)NC(=O)[C@@H]4CCCN4C(=O)[C@H](Cc4ccc(O)cc4)NC(=O)[C@H](CCCCN)NC(=O)[C@H](Cc4c[nH]c5ccccc45)NC(=O)[C@H](CCC(=O)O)NC(=O)[C@H](CSSC[C@H](NC(=O)[C@H](CO)NC(=O)[C@H](CC(=O)O)NC(=O)[C@H](Cc4c[nH]c5ccccc45)NC(=O)[C@H](CCC(N)=O)NC(=O)CNC1=O)C(=O)N[C@@H](CC(=O)O)C(=O)N1CCC[C@H]1C(=O)N[C@@H](CCCCN)C(=O)N[C@@H](C)C(=O)N[C@@H](CO)C(=O)N[C@@H](C)C(=O)N3)NC(=O)[C@H](C)NC(=O)[C@H](Cc1ccc(O)cc1)NC(=O)[C@H](CC(N)=O)NC(=O)[C@@H]1CCCN1C2=O` [K15A] (HELM PEPTIDE1{A.C.L.G.Q.W.D.S.C.D.P.K.A.S.A.C.C.P.N.Y.A.C.E.W.K.Y.P.W.C.R.Y.K.L.F}$PEPTIDE1,PEPTIDE1,2:R3-17:R3|PEPTIDE1,PEPTIDE1,9:R3-22:R3|PEPTIDE1,PEPTIDE1,16:R3-29:R3$$$V2.0), for which, in series [4], the “modification of variant affinity for hNaV1.7 relative to wild-type” value is recorded as “less than 3 fold”. In series [4] (hNaV1.7 IC50, SD), the 50% inhibitory concentration (IC50) was 706 nM.

Regarding `CC(C)C[C@@H]1NC(=O)[C@@H](NC(=O)[C@H](C)N)CSSC[C@@H]2NC(=O)[C@@H]3CSSC[C@@H](C(=O)N[C@@H](CCCNC(=N)N)C(=O)N[C@@H](Cc4ccc(O)cc4)C(=O)N[C@@H](CCCCN)C(=O)N[C@@H](CC(C)C)C(=O)N[C@@H](Cc4ccccc4)C(=O)O)NC(=O)[C@H](Cc4c[nH]c5ccccc45)NC(=O)[C@@H]4CCCN4C(=O)[C@H](Cc4ccc(O)cc4)NC(=O)[C@H](C)NC(=O)[C@H](Cc4c[nH]c5ccccc45)NC(=O)[C@H](CCC(=O)O)NC(=O)[C@H](CSSC[C@H](NC(=O)[C@H](CO)NC(=O)[C@H](CC(=O)O)NC(=O)[C@H](Cc4c[nH]c5ccccc45)NC(=O)[C@H](CCC(N)=O)NC(=O)CNC1=O)C(=O)N[C@@H](CC(=O)O)C(=O)N1CCC[C@H]1C(=O)N[C@@H](CCCCN)C(=O)N[C@@H](C)C(=O)N[C@@H](CO)C(=O)N[C@@H](CCCCN)C(=O)N3)NC(=O)[C@H](C)NC(=O)[C@H](Cc1ccc(O)cc1)NC(=O)[C@H](CC(N)=O)NC(=O)[C@@H]1CCCN1C2=O` [K25A] (HELM PEPTIDE1{A.C.L.G.Q.W.D.S.C.D.P.K.A.S.K.C.C.P.N.Y.A.C.E.W.A.Y.P.W.C.R.Y.K.L.F}$PEPTIDE1,PEPTIDE1,2:R3-17:R3|PEPTIDE1,PEPTIDE1,9:R3-22:R3|PEPTIDE1,PEPTIDE1,16:R3-29:R3$$$V2.0), in [4] (hNaV1.7 IC50), the IC50 is over 10000 nM.

For the molecule `COC(=O)C1=C(C)NC(C)=C(C(=O)OC)C1c1ccccc1[N+](=O)[O-]` [Nifedipine, reference compound], the IC90 in [1] (CHO) turned out to be 10000 nM.

On to `CC(C)C[C@@H]1NC(=O)[C@@H](NC(=O)[C@H](C)N)CSSC[C@@H]2NC(=O)[C@@H]3CSSC[C@@H](C(=O)N[C@@H](CCCNC(=N)N)C(=O)N[C@@H](Cc4ccc(O)cc4)C(=O)N[C@@H](CCCCN)C(=O)N[C@@H](CC(C)C)C(=O)N[C@@H](Cc4ccccc4)C(=O)O)NC(=O)[C@H](Cc4c[nH]c5ccccc45)NC(=O)[C@@H]4CCCN4C(=O)[C@H](Cc4ccc(O)cc4)NC(=O)[C@H](CCCCN)NC(=O)[C@H](Cc4c[nH]c5ccccc45)NC(=O)[C@H](CCC(=O)O)NC(=O)[C@H](CSSC[C@H](NC(=O)[C@H](C)NC(=O)[C@H](CC(=O)O)NC(=O)[C@H](Cc4c[nH]c5ccccc45)NC(=O)[C@H](CCC(N)=O)NC(=O)CNC1=O)C(=O)N[C@@H](CC(=O)O)C(=O)N1CCC[C@H]1C(=O)N[C@@H](CCCCN)C(=O)N[C@@H](C)C(=O)N[C@@H](CO)C(=O)N[C@@H](CCCCN)C(=O)N3)NC(=O)[C@H](C)NC(=O)[C@H](Cc1ccc(O)cc1)NC(=O)[C@H](CC(N)=O)NC(=O)[C@@H]1CCCN1C2=O` [S8A] (HELM PEPTIDE1{A.C.L.G.Q.W.D.A.C.D.P.K.A.S.K.C.C.P.N.Y.A.C.E.W.K.Y.P.W.C.R.Y.K.L.F}$PEPTIDE1,PEPTIDE1,2:R3-17:R3|PEPTIDE1,PEPTIDE1,9:R3-22:R3|PEPTIDE1,PEPTIDE1,16:R3-29:R3$$$V2.0), for which, in series [4], the “modification of variant affinity for hNaV1.7 relative to wild-type” value was “less than 3 fold”. In series [4] (hNaV1.7 IC50, SD), this molecule came in with an IC50 of 180 nM.

On to `CC(C)C[C@@H]1NC(=O)[C@@H](NC(=O)[C@H](C)N)CSSC[C@@H]2NC(=O)[C@@H]3CSSC[C@@H](C(=O)N[C@@H](CCCNC(=N)N)C(=O)N[C@@H](Cc4ccc(O)cc4)C(=O)N[C@@H](CCCCN)C(=O)N[C@@H](CC(C)C)C(=O)N[C@@H](Cc4ccccc4)C(=O)O)NC(=O)[C@H](Cc4c[nH]c5ccccc45)NC(=O)[C@@H]4CCCN4C(=O)[C@H](Cc4ccc(O)cc4)NC(=O)[C@H](CCCCN)NC(=O)[C@H](C)NC(=O)[C@H](CCC(=O)O)NC(=O)[C@H](CSSC[C@H](NC(=O)[C@H](CO)NC(=O)[C@H](CC(=O)O)NC(=O)[C@H](Cc4c[nH]c5ccccc45)NC(=O)[C@H](CCC(N)=O)NC(=O)CNC1=O)C(=O)N[C@@H](CC(=O)O)C(=O)N1CCC[C@H]1C(=O)N[C@@H](CCCCN)C(=O)N[C@@H](C)C(=O)N[C@@H](CO)C(=O)N[C@@H](CCCCN)C(=O)N3)NC(=O)[C@H](C)NC(=O)[C@H](Cc1ccc(O)cc1)NC(=O)[C@H](CC(N)=O)NC(=O)[C@@H]1CCCN1C2=O` [W24A] (HELM PEPTIDE1{A.C.L.G.Q.W.D.S.C.D.P.K.A.S.K.C.C.P.N.Y.A.C.E.A.K.Y.P.W.C.R.Y.K.L.F}$PEPTIDE1,PEPTIDE1,2:R3-17:R3|PEPTIDE1,PEPTIDE1,9:R3-22:R3|PEPTIDE1,PEPTIDE1,16:R3-29:R3$$$V2.0), for which, in series [4] (hNaV1.7 IC50), the IC50 was over 10000 nM.

The molecule `CC(C)C[C@@H]1NC(=O)[C@@H](NC(=O)[C@H](C)N)CSSC[C@@H]2NC(=O)[C@@H]3CSSC[C@@H](C(=O)N[C@@H](CCCNC(=N)N)C(=O)N[C@@H](Cc4ccc(O)cc4)C(=O)N[C@@H](CCCCN)C(=O)N[C@@H](CC(C)C)C(=O)N[C@@H](Cc4ccccc4)C(=O)O)NC(=O)[C@H](Cc4c[nH]c5ccccc45)NC(=O)[C@@H]4CCCN4C(=O)[C@H](C)NC(=O)[C@H](CCCCN)NC(=O)[C@H](Cc4c[nH]c5ccccc45)NC(=O)[C@H](CCC(=O)O)NC(=O)[C@H](CSSC[C@H](NC(=O)[C@H](CO)NC(=O)[C@H](CC(=O)O)NC(=O)[C@H](Cc4c[nH]c5ccccc45)NC(=O)[C@H](CCC(N)=O)NC(=O)CNC1=O)C(=O)N[C@@H](CC(=O)O)C(=O)N1CCC[C@H]1C(=O)N[C@@H](CCCCN)C(=O)N[C@@H](C)C(=O)N[C@@H](CO)C(=O)N[C@@H](CCCCN)C(=O)N3)NC(=O)[C@H](C)NC(=O)[C@H](Cc1ccc(O)cc1)NC(=O)[C@H](CC(N)=O)NC(=O)[C@@H]1CCCN1C2=O` [Y26A] (HELM PEPTIDE1{A.C.L.G.Q.W.D.S.C.D.P.K.A.S.K.C.C.P.N.Y.A.C.E.W.K.A.P.W.C.R.Y.K.L.F}$PEPTIDE1,PEPTIDE1,2:R3-17:R3|PEPTIDE1,PEPTIDE1,9:R3-22:R3|PEPTIDE1,PEPTIDE1,16:R3-29:R3$$$V2.0) came in with an IC50 in series [4] (hNaV1.7 IC50) of over 10000 nM.

In the case of “CcoTx1: spider toxin, NaV ligand (CLGWFKSCDPKNDKCCKNYTCSRRDRWCKYDL)”, in [8], the “concentration efficient to diminish or completely reverse the OD1-induced manifestations of pain” value (“concentration efficient” below) is 1 µM. Moreover, the IC50 in series [9] was 2 to 130 nM.

For “CcoTx2: spider toxin, NaV ligand (CLGWFKSCDPKNDKCCKNYTCSRRDRWCKYYL)”, the “concentration efficient” value in series [8] is recorded as 1 µM. The half-maximal inhibitory concentration (IC50) in series [9] was 95 nM.

Take “Cd1a: spider toxin, NaV ligand (CLGWFKSCDPKNDKCCKNYSCSRRDRWCKYDL)”: the “concentration efficient” value in series [8] is listed as 1 µM. Besides, the IC50 in series [9] is 16 nM.

Consider “Pre1a: spider toxin, NaV ligand (CLGWFSRCSPKNDKCCPNYKCSSKDLWCKYKIW)”, for which, in [9], the IC50 is 114 nM.
